Assay results published in the supplement of paper PMC10307832.

compound: N[C@@H]1CCCN(c2c(/C=C3\SC(=O)NC3=O)cccc2-c2ccccc2)C1 [AZD1208] + CS(=O)(=O)N1CCN(Cc2cc3nc(-c4cccc5[nH]ncc45)nc(N4CCOCC4)c3s2)CC1 [Pictilisib] (partner 1 µM); experiment: relative viability (nuclei count vs DMSO), 5 days (fraction); higher = more cells survive; details: first compound 0.08 µM
Method in brief: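 Relative viability is defined as nuclei in treated wells over nuclei in vehicle wells. Duplicate plates were run and medians reported. Lung cancer cell lines in 1536-well plates were dosed by pin tool one day after seeding, with one drug or with a fixed anchor-drug dose plus five library-drug doses (not always all listed) in √10 steps, and nuclei were counted after 5 days.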

Cell Line | relative viability
HOP-62 | 0.658
A549 | 0.409
NCI-H2023 | 0.193
NCI-H520 | 0.238
SW 1573 | 0.411
NCI-H1299 | 0.731
CAL-12T | 0.507
NCI-H1563 | 0.566
SK-LU-1 | 0.459
NCI-H661 | 0.417

same assay, conditions: first compound 0.253 µM

Cell Line | relative viability
NCI-H838 | 0.427
NCI-H1650 | 0.575
EBC-1 | 0.275
NCI-H1703 | 0.242
NCI-H2009 | 0.811
NCI-H1993 | 0.878
PC-14 | 0.743
LCLC-103H | 0.614
NCI-H596 | 0.349
NCI-H2228 | 0.328
EMC-BAC-2 | 0.528
NCI-H2087 | 0.842
Calu-6 | 1
HCC-366 | 0.0978
NCI-H1666 | 0.553
NCI-H647 | 0.371
LK-2 | 0.349
NCI-H2126 | 0.476
SK-MES-1 | 0.326

Cell Line | relative viability
H3255 | 0.44
COR-L23 | 0.87
COR-L 105 | 0.3
IA-LM | 0.326
LOU-NH91 | 0.485
ChaGo-K-1 | 0.698
NCI-H2170 | 0.263
NCI-H3122 | 0.486
HOP-62 | 0.638
A549 | 0.423
NCI-H2023 | 0.223
NCI-H520 | 0.278
SW 1573 | 0.418
NCI-H1299 | 0.725
CAL-12T | 0.523
NCI-H1563 | 0.545
SK-LU-1 | 0.607
NCI-H661 | 0.391

same assay, conditions: first compound 0.8 µM

Cell Line | relative viability
NCI-H838 | 0.343
NCI-H1650 | 0.434
EBC-1 | 0.265
NCI-H1703 | 0.238
NCI-H2009 | 0.75
NCI-H1993 | 0.692
PC-14 | 0.436
LCLC-103H | 0.485
NCI-H596 | 0.366
NCI-H2228 | 0.381
EMC-BAC-2 | 0.463
NCI-H2087 | 0.654
Calu-6 | 0.851
HCC-366 | 0.123
NCI-H1666 | 0.353
NCI-H647 | 0.37
LK-2 | 0.29
NCI-H2126 | 0.436
SK-MES-1 | 0.303

Cell Line | relative viability
H3255 | 0.408
COR-L23 | 0.725
COR-L 105 | 0.353
IA-LM | 0.292
LOU-NH91 | 0.503
ChaGo-K-1 | 0.644
NCI-H2170 | 0.254
NCI-H3122 | 0.447
HOP-62 | 0.658
A549 | 0.303
NCI-H2023 | 0.203
NCI-H520 | 0.201
SW 1573 | 0.421
NCI-H1299 | 0.818
CAL-12T | 0.389
NCI-H1563 | 0.672
SK-LU-1 | 0.532
NCI-H661 | 0.34

same assay, conditions: first compound 2.53 µM

Cell Line | relative viability
NCI-H838 | 0.378
NCI-H1650 | 0.395
EBC-1 | 0.271
NCI-H1703 | 0.214
NCI-H2009 | 0.553
NCI-H1993 | 0.807
PC-14 | 0.584
LCLC-103H | 0.455
NCI-H596 | 0.348
EMC-BAC-2 | 0.474
NCI-H2087 | 0.561
Calu-6 | 0.829
HCC-366 | 0.092
NCI-H1666 | 0.309
NCI-H647 | 0.339
LK-2 | 0.383
NCI-H2126 | 0.424
SK-MES-1 | 0.3

Cell Line | relative viability
H3255 | 0.364
COR-L23 | 0.693
COR-L 105 | 0.366
IA-LM | 0.231
LOU-NH91 | 0.494
ChaGo-K-1 | 0.537
NCI-H2170 | 0.213
NCI-H3122 | 0.481
HOP-62 | 0.455
A549 | 0.283
NCI-H2023 | 0.183
NCI-H520 | 0.185
SW 1573 | 0.347
NCI-H1299 | 0.653
CAL-12T | 0.355
NCI-H1563 | 0.635
SK-LU-1 | 0.567
NCI-H661 | 0.342

same assay, conditions: first compound 8 µM

Cell Line | relative viability
NCI-H838 | 0.366
NCI-H1650 | 0.41
EBC-1 | 0.274
NCI-H1703 | 0.198
NCI-H2009 | 0.714
NCI-H1993 | 0.869
PC-14 | 0.482
LCLC-103H | 0.448
NCI-H596 | 0.328
NCI-H2228 | 0.285
EMC-BAC-2 | 0.47
NCI-H2087 | 0.732
Calu-6 | 0.739
HCC-366 | 0.0878
NCI-H1666 | 0.374
NCI-H647 | 0.364
LK-2 | 0.266
NCI-H2126 | 0.441
SK-MES-1 | 0.291

Cell Line | relative viability
H3255 | 0.451
COR-L23 | 0.75
COR-L 105 | 0.451
IA-LM | 0.308
LOU-NH91 | 0.517
ChaGo-K-1 | 0.484
NCI-H2170 | 0.224
NCI-H3122 | 0.524
HOP-62 | 0.717
A549 | 0.358
NCI-H2023 | 0.209
NCI-H520 | 0.184
SW 1573 | 0.344
NCI-H1299 | 0.562
CAL-12T | 0.511
NCI-H1563 | 0.629
SK-LU-1 | 0.431
NCI-H661 | 0.355
